Experimental data published in patent US20030083822A2, “SYSTEMS AND METHODS FOR […] INFORMATICS” (PsychoGenics, Inc., priority 2001, published 2003).

Test system: mice
Experiment: Transition-matrix analysis of behavior of drug-treated mice, coded by human observers (Figure 13)
Assay type: in vivo
Conditions: average matrix of drug treated mice normalized to control (vehicle) matrix; increase
Procedure: Testing drugs several times and comparing the results can address replication. Significance is illustrated in Figure 13, where exemplary data is shown from an experiment in which mice were treated with one of the indicated drugs ensuing behavior was recorded and later coded by human observers. In the analysis of transition matrices, the average matrix of the drug treated mice was combined with the average matrix of the control mice. The control data was treated as the "population" data as it was expected to have very large numbers from mice treated with same vehicle as more and more experiments that require such vehicle are conducted.
Referring again to Figure 13, the average transition matrix was transformed as a z-score matrix based on the mean and standard error of the control matrix. In doing so, every drug transition (fd,i) subtracted the corresponding control transition (fc,i) and divided by the standard error (sc,i), as in zd,i=((fd,i)-(fc,i))/(sc,i) was obtained. Although this is just one possible way to normalize the data (e.g., student t-scores can also be calculated), it has some intuitive appeal, as the z-scores can now be read as distance from the control in standard-deviation units. Thus, in Figure 13, the first cell of the matrix corresponding to chlordiazepoxide (CDP), can be read as "CDP increased the number of rear-rear transitions more than 30 fold". […]

CNC1=Nc2ccc(Cl)cc2C(c2ccccc2)=[N+]([O-])C1 [CDP, chlordiazepoxide]
number of rear-rear transitions (first cell of the z-score transition matrix): more than 30 fold
